Source: patent US6562359B2, “Pest repellent” (Sumitomo Chemical Company, Ltd., priority 1997, dated 2003)

What was measured:
Type in all cases: in vivo
[1] = system: mosquitoes (Aedes aegypti); test: Test Example 1: mosquito entrance inhibition in treated cup; settings: Aedes aegypti females; 0.3 mg/cup on filter paper; counted 10 minutes after setting; disposal warmer lure
Procedure: A lower side part of a plastic cup (base diameter: 10 cm; top opening diameter: 12 cm; height: 7 cm; capacity: about 650 ml) was cut out to form a 2 cm square entrance of mosquitoes. At the center of said cup was placed a twofold disposal warmer (Kiribai New Hand Warmer, 24-hour type, 13.5×10 cm) as a lure for mosquitoes. A 9 cm-diameter filter paper was treated with a 1 ml solution of the test substance diluted with acetone to a predetermined concentration, and after acetone was air dried, said filter paper was attached to the inside of the cover of said cup with a double-side adhesive tape. This cover was fitted on said cup, allowing the test substance to volatilize and diffuse in the cup for one minute.
In a nylon gauze-made cage (50 cm×50 cm×50 cm) holding about 600 mosquitoes (Aedes aegypti) one to 2 weeks old after emergence (sex ratio=ca. 1:1), 2 said cups were placed cater-cornered across the cage, each of said cups being positioned about 10 cm away from the cage corner, to lure the mosquitoes. […] 10 minutes after setting the cups at said positions in the cage, each cup was taken out of the cage and the number of the female insects attracted into the cup was counted. Based on the obtained result, the insect entrance inhibition rate was calculated from the following equation: […]

[2] = system: mosquitoes (Culex pipiens pallens); test: Test Example 2: mosquito entrance inhibition in treated cup, overnight luring; settings: 3.0 mg/cup, tacky trap in cup
[3] = system: houseflies (Musca domestica); test: Test Example 3: housefly entrance inhibition in treated cup; settings: 100 mg/cup, powder milk and sugar lure
[4] = system: Meqaselia spiracularis; test: Test Example 4: entrance inhibition in treated cup, maggot rearing medium lure; settings: 100 mg/cup, 30 minutes after setting
[5] = system: Clogmia albipunctata; test: Test Example 5: entrance inhibition in treated cup, in the dark; settings: 30 mg/cup, 2 hours after setting
[6] = system: Tineola bisselliella; test: Test Example 6: entrance inhibition in treated carton with wool muslin; settings: Tineola bisselliella female adults; 1 mg/cup (carton with wool muslin)
Source text: Insect entrance inhibition rate (%)={(number of insects attracted into the non-treated section−number of insects attracted into the treated section)/number of insects attracted into the non-treated section}×100 A lower end of a 4.5 cm×4.5 cm×4.5 cm carton was cut out to form a 0.5 cm×4.5 cm entrance of insects. A filter paper (2 cm×2 cm) impregnated with an acetone-diluted solution of the test substance was placed in the carton, and a 1 cm×1 cm piece of wool muslin was laid on said filter paper. This carton was set at a corner of a nylon gauze-made cage (20 cm×20 cm×30 cm), and a carton containing a filter paper not treated with hyssop oil and having wool muslin laid thereon was set at the diagonally opposite corner of the cage. About 60 female adults of Tineola bisselliella one to 2 days old after emergence were released in the cage, and the number of the insects which entered the cartons was counted. The test was conducted on a two-replication system.

For `CCN(CC)C(=O)c1cccc(C)c1` [DEET, N,N-diethyl-m-toluamide], the Entrance inhibition rate [1] was 38%, the Entrance inhibition rate [2] was −10% and the Entrance inhibition rate [3] was 34%. For the same compound, the Entrance inhibition rate [4] was 34%, the Entrance inhibition rate [5] was 50% and the Entrance inhibition rate [6] was 9.5%.
